Test results reported in US20250122183A1 (Pfizer Inc., priority 2023, published 2025).
Where two headings read alike, the source gives them in different places.

Columns and labels:
Type in all cases: biochemical
Details in all cases: replicate number in parentheses
KAT6A Full length enzyme = KAT6A Full length enzyme (Homo sapiens (Human), UniProt Q92794); test: KAT6A assay (SAMDI-MS acetylation of H3 1-21 peptide)
[1] = target: KAT7+BRPF2+EAF6+ING5 4 protein complex (Homo sapiens (Human), UniProt O95251); test: KAT7 BRPF2 assay (SAMDI-MS acetylation of H3 1-21 peptide)
[2] = target: KAT7+JADE1+EAF6+ING5 4 protein complex (Homo sapiens (Human), UniProt O95251); test: KAT7 JADE1 assay (SAMDI-MS acetylation of H3 1-21 peptide)
KAT8 Full length enzyme = KAT8 Full length enzyme (Homo sapiens (Human), UniProt Q9H7Z6); test: KAT8 assay (SAMDI-MS acetylation of H3 1-21 peptide)
KAT5 Full length enzyme = KAT5 Full length enzyme (Homo sapiens (Human), UniProt Q92993); test: KAT5 assay (SAMDI-MS acetylation of H4 1-21 peptide)
[3] = Morrison equation fit, read-out: KAT6A Ki (nM) (replicate number)
[4] = Morrison equation fit, read-out: KAT7 BRPF2 Ki (nM) (replicate number)
[5] = Morrison equation fit, read-out: KAT7 JADE1 Ki (nM) (replicate number)
[6] = Morrison equation fit, read-out: KAT8 Ki (nM) (replicate number)
[7] = Morrison equation fit, read-out: KAT5 Ki (nM) (replicate number)
[8] = read-out: KAT6A Ki (nM) (replicate)
[9] = read-out: KAT7 BRPF2 Ki (nM) (replicate)
[10] = read-out: KAT7 JADE1 Ki (nM) (replicate)
[11] = read-out: KAT8 Ki (nM) (replicate)
[12] = read-out: KAT5 Ki (nM) (replicate)

KAT5 Full length enzyme, sequence (Q92993 whole entry): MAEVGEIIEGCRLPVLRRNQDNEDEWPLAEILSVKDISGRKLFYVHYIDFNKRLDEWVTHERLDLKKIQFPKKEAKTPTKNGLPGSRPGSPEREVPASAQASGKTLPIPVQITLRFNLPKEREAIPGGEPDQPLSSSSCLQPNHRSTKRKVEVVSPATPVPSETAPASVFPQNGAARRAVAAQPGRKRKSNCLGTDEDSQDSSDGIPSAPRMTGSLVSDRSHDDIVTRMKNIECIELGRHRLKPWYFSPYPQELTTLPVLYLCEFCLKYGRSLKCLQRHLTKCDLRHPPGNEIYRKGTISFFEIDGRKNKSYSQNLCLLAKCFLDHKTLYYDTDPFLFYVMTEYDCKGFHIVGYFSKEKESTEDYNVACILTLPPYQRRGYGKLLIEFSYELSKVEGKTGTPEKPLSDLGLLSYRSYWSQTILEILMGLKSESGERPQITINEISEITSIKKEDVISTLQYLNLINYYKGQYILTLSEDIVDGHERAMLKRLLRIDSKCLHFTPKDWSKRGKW
KAT6A Full length enzyme, sequence (Q92794 other isoform, or with tags, fused parts or gaps): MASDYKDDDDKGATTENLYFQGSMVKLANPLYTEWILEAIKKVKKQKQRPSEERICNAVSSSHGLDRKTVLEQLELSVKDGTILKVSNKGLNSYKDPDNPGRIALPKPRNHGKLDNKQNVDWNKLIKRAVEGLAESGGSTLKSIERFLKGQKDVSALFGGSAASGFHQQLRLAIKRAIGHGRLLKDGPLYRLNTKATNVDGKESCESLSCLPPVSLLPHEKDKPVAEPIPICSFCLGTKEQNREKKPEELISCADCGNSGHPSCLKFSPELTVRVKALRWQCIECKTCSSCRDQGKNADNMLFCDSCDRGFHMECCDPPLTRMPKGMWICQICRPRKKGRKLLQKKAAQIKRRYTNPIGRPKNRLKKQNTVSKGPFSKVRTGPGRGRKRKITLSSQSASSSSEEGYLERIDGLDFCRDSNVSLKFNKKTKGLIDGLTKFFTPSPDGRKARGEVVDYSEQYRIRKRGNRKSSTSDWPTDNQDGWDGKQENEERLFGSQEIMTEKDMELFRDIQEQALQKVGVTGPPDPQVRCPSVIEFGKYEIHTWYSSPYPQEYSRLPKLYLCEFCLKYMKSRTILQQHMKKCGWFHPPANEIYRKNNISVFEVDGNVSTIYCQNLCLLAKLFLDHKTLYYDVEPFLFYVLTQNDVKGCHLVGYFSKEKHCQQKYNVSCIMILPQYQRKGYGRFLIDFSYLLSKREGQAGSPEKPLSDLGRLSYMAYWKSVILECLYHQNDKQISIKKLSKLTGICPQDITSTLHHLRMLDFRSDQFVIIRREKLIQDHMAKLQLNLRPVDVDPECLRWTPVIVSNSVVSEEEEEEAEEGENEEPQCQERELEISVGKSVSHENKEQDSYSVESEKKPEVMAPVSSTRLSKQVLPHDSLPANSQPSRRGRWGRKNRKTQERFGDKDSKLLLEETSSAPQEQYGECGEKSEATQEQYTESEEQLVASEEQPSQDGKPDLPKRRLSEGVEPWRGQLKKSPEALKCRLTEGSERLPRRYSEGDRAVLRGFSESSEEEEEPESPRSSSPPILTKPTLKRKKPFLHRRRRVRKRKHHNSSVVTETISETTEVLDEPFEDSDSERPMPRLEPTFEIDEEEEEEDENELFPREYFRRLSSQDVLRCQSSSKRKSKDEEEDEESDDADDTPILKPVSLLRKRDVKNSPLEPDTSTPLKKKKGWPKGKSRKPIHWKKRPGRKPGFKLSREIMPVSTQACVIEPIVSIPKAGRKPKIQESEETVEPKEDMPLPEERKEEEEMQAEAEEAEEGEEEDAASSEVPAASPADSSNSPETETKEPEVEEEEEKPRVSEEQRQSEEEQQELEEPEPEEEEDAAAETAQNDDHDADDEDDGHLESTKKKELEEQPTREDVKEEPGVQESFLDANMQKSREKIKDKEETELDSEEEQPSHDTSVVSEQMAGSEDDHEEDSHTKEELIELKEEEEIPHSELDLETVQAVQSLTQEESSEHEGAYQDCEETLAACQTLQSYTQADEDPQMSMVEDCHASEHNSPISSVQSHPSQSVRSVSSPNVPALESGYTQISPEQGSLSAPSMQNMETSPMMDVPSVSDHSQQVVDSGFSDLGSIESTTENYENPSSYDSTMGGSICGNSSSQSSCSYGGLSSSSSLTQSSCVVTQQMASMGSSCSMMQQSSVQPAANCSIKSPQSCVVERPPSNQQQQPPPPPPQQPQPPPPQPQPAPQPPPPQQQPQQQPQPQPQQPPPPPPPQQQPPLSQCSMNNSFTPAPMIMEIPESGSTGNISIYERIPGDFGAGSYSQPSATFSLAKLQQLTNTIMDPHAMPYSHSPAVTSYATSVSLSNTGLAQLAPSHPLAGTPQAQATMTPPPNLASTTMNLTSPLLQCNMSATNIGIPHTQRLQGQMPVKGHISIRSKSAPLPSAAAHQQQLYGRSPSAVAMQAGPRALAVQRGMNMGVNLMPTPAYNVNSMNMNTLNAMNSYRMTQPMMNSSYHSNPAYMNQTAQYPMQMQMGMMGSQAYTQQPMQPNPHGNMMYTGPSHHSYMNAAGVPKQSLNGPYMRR
KAT8 Full length enzyme, sequence (Q9H7Z6 whole entry): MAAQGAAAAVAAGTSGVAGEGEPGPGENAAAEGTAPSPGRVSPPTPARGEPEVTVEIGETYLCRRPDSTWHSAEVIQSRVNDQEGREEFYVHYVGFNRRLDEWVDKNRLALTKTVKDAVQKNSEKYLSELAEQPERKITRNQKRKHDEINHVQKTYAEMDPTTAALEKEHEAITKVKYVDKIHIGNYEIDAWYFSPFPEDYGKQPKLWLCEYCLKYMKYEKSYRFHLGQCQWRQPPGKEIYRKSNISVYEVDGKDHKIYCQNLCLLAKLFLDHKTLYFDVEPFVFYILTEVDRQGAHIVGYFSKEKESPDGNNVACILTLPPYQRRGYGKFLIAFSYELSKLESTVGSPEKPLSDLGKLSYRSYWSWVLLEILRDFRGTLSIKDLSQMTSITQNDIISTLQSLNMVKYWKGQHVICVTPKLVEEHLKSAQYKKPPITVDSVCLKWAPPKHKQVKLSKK

In the case of `CCOc1cccc(OC)c1S(=O)(=O)Nc1noc2cc(Nc3cc[nH]n3)c(OC)cc12` [Example 30, 2-ethoxy-6-methoxy-N-{5-methoxy-6-[(1H-pyrazol-3-yl)amino]-1,2-benzoxazol-3-yl}benzene-1-sulfonamide], the Ki (KAT6A Full length enzyme; [3]) is reported as 0.5 nM, the Ki [1, 4] is reported as 26 nM and the Ki [2, 5] is reported as 248 nM. For the same compound, the Ki (KAT8 Full length enzyme; [6]) was 676 nM and the Ki (KAT5 Full length enzyme; [7]) was 605 nM.
`COc1cc2c(NS(=O)(=O)c3c(OC)cc(C4COC(C)(C)CO4)cc3OC)noc2cc1Nc1cc(C2CC2)n[nH]1` (single isomer, unassigned) [Example 186, N-{6-[(3-cyclopropyl-1 H-pyrazol-5-yl)amino]-5-methoxy-1,2-benzoxazol-3-yl}-4-(5,5-dimethyl-1,4-dioxan-2-yl)-2,6-dimethoxybenzene-1-sulfonamide] gave a Ki (KAT6A Full length enzyme; [3]) of 0.8 nM, a Ki [1, 4] of 1.5 nM and a Ki [2, 5] of 3.6 nM. It also gave a Ki (KAT8 Full length enzyme; [6]) of 590 nM and a Ki (KAT5 Full length enzyme; [7]) of 5.8 nM.
`COc1cc2c(NS(=O)(=O)c3c(OC)cc(N4CCN(C)CC4)cc3OC)noc2cc1Nc1cc(C2CC2)n[nH]1` [Example 251, N-{6-[(3-cyclopropyl-1H-pyrazol-5-yl)amino]-5-methoxy-1,2-benzoxazol-3-yl}-2,6-dimethoxy-4-(4-methylpiperazin-1-yl)benzene-1-sulfonamide] was tested, and the Ki (KAT6A Full length enzyme; [8]) was 1 nM, the Ki [1, 9] was 2.1 nM and the Ki [2, 10] was 6.2 nM. For the same compound, the Ki (KAT8 Full length enzyme; [11]) was 1150 nM and the Ki (KAT5 Full length enzyme; [12]) was 67 nM.
`COc1cc2c(NS(=O)(=O)c3c(OC)cc(N4CC[C@@H](OC)C4)cc3OC)noc2cc1Nc1cc(C2CC2)n[nH]1` [Example 250, N-{6-[(3-cyclopropyl-1H-pyrazol-5-yl)amino]-5-methoxy-1,2-benzoxazol-3-yl}-2,6-dimethoxy-4-[(3R)-3-methoxypyrrolidin-1-yl]benzene-1-sulfonamide] gave a Ki (KAT6A Full length enzyme; [8]) of 0.2 nM, a Ki [1, 9] of 0.9 nM and a Ki [2, 10] of 1.3 nM.
`COc1cc2c(NS(=O)(=O)c3c(OC)cc(N(C)C4COC4)cc3OC)noc2cc1Nc1cc(C2CC2)n[nH]1` [Example 248, N-{6-[(3-cyclopropyl-1H-pyrazol-5-yl)amino]-5-methoxy-1,2-benzoxazol-3-yl}-2,6-dimethoxy-4-[methyl(oxetan-3-yl)amino]benzene-1-sulfonamide] gave a Ki (KAT6A Full length enzyme; [8]) of 1.2 nM, a Ki [1, 9] of 2.6 nM and a Ki [2, 10] of 5.8 nM.
`COc1cc2c(NS(=O)(=O)c3c(OC)cc(N4CC[C@@H](F)C4)cc3OC)noc2cc1Nc1cc(C2CC2)n[nH]1` [Example 249, N-{6-[(3-cyclopropyl-1H-pyrazol-5-yl)amino]-5-methoxy-1,2-benzoxazol-3-yl}-4-[(3R)-3-fluoropyrrolidin-1-yl]-2,6-dimethoxybenzene-1-sulfonamide] was tested, and the Ki (KAT6A Full length enzyme; [8]) was 0.3 nM, the Ki [1, 9] was 0.3 nM and the Ki [2, 10] was 1.7 nM. It also gave a Ki (KAT8 Full length enzyme; [11]) of 104 nM and a Ki (KAT5 Full length enzyme; [12]) of 8.7 nM.
In the case of `COc1cc2c(NS(=O)(=O)c3c(OC)cc(N(C)C4CCOC4)cc3OC)noc2cc1Nc1cc(C2CC2)[nH]n1` (centres unmarked) [Example 247, N-{6-[(3-cyclopropyl-1H-pyrazol-5-yl)amino]-5-methoxy-1,2-benzoxazol-3-yl}-2,6-dimethoxy-4-[methyl(oxolan-3-yl)amino]benzene-1-sulfonamide], the Ki (KAT6A Full length enzyme; [8]) is reported as 0.5 nM, the Ki [1, 9] is reported as 1.7 nM and the Ki [2, 10] is reported as 2.7 nM.
`CCc1cc(Nc2cc3onc(NS(=O)(=O)c4ccc(C(=O)NCCCCCN)cc4OC)c3cc2OC)[nH]n1` [Example 96, N-(5-aminopentyl)-4-({6-[(3-ethyl-1H-pyrazol-5-yl)amino]-5-methoxy-1,2-benzoxazol-3-yl}sulfamoyl)-3-methoxybenzamide] showed a Ki (KAT6A Full length enzyme; [3]) of 7.3 nM, a Ki [1, 4] of 13.6 nM and a Ki [2, 5] of 103 nM. The Ki (KAT8 Full length enzyme; [6]) was greater than 13000 nM and the Ki (KAT5 Full length enzyme; [7]) was 2050 nM.
`COc1cc2c(NS(=O)(=O)c3c(OC)cc(C4COC(C)(C)CO4)cc3OC)noc2cc1Nc1cc(C2CC2)n[nH]1` (single isomer, unassigned) [Example 185, N-{6-[(3-cyclopropyl-1 H-pyrazol-5-yl)amino]-5-methoxy-1,2-benzoxazol-3-yl}-4-(5,5-dimethyl-1,4-dioxan-2-yl)-2,6-dimethoxybenzene-1-sulfonamide] showed a Ki (KAT6A Full length enzyme; [3]) of 0.3 nM, a Ki [1, 4] of 0.9 nM and a Ki [2, 5] of 1.8 nM. The Ki (KAT8 Full length enzyme; [6]) was 1220 nM and the Ki (KAT5 Full length enzyme; [7]) was 1 nM.
Work on `COc1cc2c(NS(=O)(=O)c3c(OC)cc(C4COCC(C)(C)O4)cc3OC)noc2cc1Nc1cc(C2CC2)n[nH]1` (single isomer, unassigned) [Example 184, N-{6-[(3-cyclopropyl-1 H-pyrazol-5-yl)amino]-5-methoxy-1,2-benzoxazol-3-yl}-4-(6,6-dimethyl-1,4-dioxan-2-yl)-2,6-dimethoxybenzene-1-sulfonamide] yielded a Ki (KAT6A Full length enzyme; [3]) of 1.8 nM, a Ki [1, 4] of 1.6 nM and a Ki [2, 5] of 4.7 nM. The Ki (KAT8 Full length enzyme; [6]) was 1030 nM and the Ki (KAT5 Full length enzyme; [7]) was 60.7 nM.
With `COc1cc2c(NS(=O)(=O)c3c(OC)cc(C4COCC(C)(C)O4)cc3OC)noc2cc1Nc1cc(C2CC2)n[nH]1` (single isomer, unassigned) [Example 183, N-{6-[(3-cyclopropyl-1 H-pyrazol-5-yl)amino]-5-methoxy-1,2-benzoxazol-3-yl}-4-(6,6-dimethyl-1,4-dioxan-2-yl)-2,6-dimethoxybenzene-1-sulfonamide] the Ki (KAT6A Full length enzyme; [3]) was 2.1 nM, the Ki [1, 4] was 2.1 nM and the Ki [2, 5] was 5.7 nM.
Compound `COc1cc2c(NS(=O)(=O)c3c(OC)cc(C(C)N4CCOCC4)cc3OC)noc2cc1Nc1cc(C2CC2)n[nH]1` (single isomer, unassigned) [Example 207, N-{6-[(3-cyclopropyl-1 H-pyrazol-5-yl)amino]-5-methoxy-1,2-benzoxazol-3-yl}-2,6-dimethoxy-4-[1-(morpholin-4-yl)ethyl]benzene-1-sulfonamide] has a Ki (KAT6A Full length enzyme; [3]) of 2.3 nM, a Ki [1, 4] of 4 nM and a Ki [2, 5] of 11.5 nM.
For `COc1cc2c(NS(=O)(=O)c3c(OC)cc(N4CCN(C)C(=O)C4)cc3OC)noc2cc1Nc1cc(C2CC2)n[nH]1` [Example 254, N-{6-[(3-cyclopropyl-1H-pyrazol-5-yl)amino]-5-methoxy-1,2-benzoxazol-3-yl}-2,6-dimethoxy-4-(4-methyl-3-oxopiperazin-1-yl)benzene-1-sulfonamide], the Ki (KAT6A Full length enzyme; [8]) was 0.7 nM, the Ki [1, 9] was 1.2 nM and the Ki [2, 10] was 6.6 nM. For the same compound, the Ki (KAT8 Full length enzyme; [11]) was 1260 nM and the Ki (KAT5 Full length enzyme; [12]) was 54.5 nM.
`COc1cc2c(NS(=O)(=O)c3c(OC)cc(N4C(=O)CCC4(C)C)cc3OC)noc2cc1Nc1cc(C2CC2)n[nH]1` [Example 256, N-{6-[(3-cyclopropyl-1H-pyrazol-5-yl)amino]-5-methoxy-1,2-benzoxazol-3-yl}-4-(2,2-dimethyl-5-oxopyrrolidin-1-yl)-2,6-dimethoxybenzene-1-sulfonamide] was tested, and the Ki (KAT6A Full length enzyme; [8]) was 1.1 nM, the Ki [1, 9] was 0.8 nM and the Ki [2, 10] was 4.7 nM.
In the case of `CCOc1cc(C)c(F)cc1S(=O)(=O)Nc1noc2cc(Nc3cc(C4CC4)n[nH]3)c(F)c(OC)c12` [Example 70, N-{6-[(3-cyclopropyl-1H-pyrazol-5-yl)amino]-5-fluoro-4-methoxy-1,2-benzoxazol-3-yl}-2-ethoxy-5-fluoro-4-methylbenzene-1-sulfonamide], the Ki (KAT6A Full length enzyme; [3]) is reported as 1.9 nM, the Ki [2, 5] is reported as 16.4 nM and the Ki (KAT8 Full length enzyme; [6]) is reported as 3880 nM. It also gave a Ki (KAT5 Full length enzyme; [7]) of 280 nM.
With `COc1cccc(OC)c1S(=O)(=O)Nc1noc2cc(N[C@H]3CCOC3)cc(OC)c12` [Example 14, 2,6-dimethoxy-N-(4-methoxy-6-{[(3S)-oxolan-3-yl]amino}-1,2-benzoxazol-3-yl)benzene-1-sulfonamide] the Ki (KAT6A Full length enzyme; [3]) was 10.1 nM, the Ki [2, 5] was greater than 2340 nM and the Ki (KAT8 Full length enzyme; [6]) was greater than 16300 nM. For the same compound, the Ki (KAT5 Full length enzyme; [7]) was 44900 nM.
`COc1cc2c(NS(=O)(=O)c3c(OC)cccc3OC)noc2cc1Nc1cc(C(C)CCO)[nH]n1` (centres unmarked) [Example 88, N-(6-{[5-(4-hydroxybutan-2-yl)-1H-pyrazol-3-yl]amino}-5-methoxy-1,2-benzoxazol-3-yl)-2,6-dimethoxybenzene-1-sulfonamide] showed a Ki (KAT6A Full length enzyme; [3]) of 27 nM, a Ki [2, 5] of 378 nM and a Ki (KAT8 Full length enzyme; [6]) greater than 13000 nM. The Ki (KAT5 Full length enzyme; [7]) was 6020 nM.
Compound `CCc1cc(Nc2cc3onc(NS(=O)(=O)c4ccc(C(F)(F)F)cc4Cl)c3cc2OC)n[nH]1` [Example 124, 2-chloro-N-{6-[(5-ethyl-1H-pyrazol-3-yl)amino]-5-methoxy-1,2-benzoxazol-3-yl}-4-(trifluoromethyl)benzene-1-sulfonamide] has a Ki (KAT6A Full length enzyme; [3]) of 51.3 nM, a Ki [2, 5] of 47.9 nM and a Ki (KAT8 Full length enzyme; [6]) of 8220 nM. The Ki (KAT5 Full length enzyme; [7]) was 4570 nM.
`COc1cc(F)c(F)cc1S(=O)(=O)Nc1noc2cc(Nc3cc(C4CC4)n[nH]3)c(F)c(OC)c12` [Example 100, N-{6-[(3-cyclopropyl-1H-pyrazol-5-yl)amino]-5-fluoro-4-methoxy-1,2-benzoxazol-3-yl}-4,5-difluoro-2-methoxybenzene-1-sulfonamide] gave a Ki (KAT6A Full length enzyme; [3]) of 21.4 nM, a Ki [2, 5] of 86.6 nM and a Ki (KAT8 Full length enzyme; [6]) greater than 13000 nM. It also gave a Ki (KAT5 Full length enzyme; [7]) of 1060 nM.
`COc1cc2c(NS(=O)(=O)c3c(OC)cc(C4CN(C)CCO4)cc3OC)noc2cc1Nc1cc(C2CC2)n[nH]1` (single isomer, unassigned) [Example 153, N-{6-[(3-cyclopropyl-1 H-pyrazol-5-yl)amino]-5-methoxy-1,2-benzoxazol-3-yl}-2,6-dimethoxy-4-(4-methylmorpholin-2-yl)benzene-1-sulfonamide] gave a Ki (KAT6A Full length enzyme; [3]) of 0.8 nM, a Ki [2, 5] of 5.7 nM and a Ki (KAT8 Full length enzyme; [6]) of 571 nM. It also gave a Ki (KAT5 Full length enzyme; [7]) of 17.4 nM.
`COc1cccc(OC)c1S(=O)(=O)Nc1noc2cc(Nc3ccccn3)cc(OC)c12` [Example 18, 2,6-dimethoxy-N-{4-methoxy-6-[(pyridin-2-yl)amino]-1,2-benzoxazol-3-yl}benzene-1-sulfonamide] showed a Ki (KAT6A Full length enzyme; [3]) of 1 nM, a Ki [2, 5] of 245 nM and a Ki (KAT8 Full length enzyme; [6]) of 5960 nM. For the same compound, the Ki (KAT5 Full length enzyme; [7]) was 5420 nM.
